biological target: T1, PARP7 (Homo sapiens, UniProt Q7Z3E1); experiment: PARP7 TR-FRET assay (binding, displacement of biotinylated Probe A); settings: 6 nM PARP7, 2 nM Probe A, 25° C., 30 min
T1 sequence (Q7Z3E1 1-657): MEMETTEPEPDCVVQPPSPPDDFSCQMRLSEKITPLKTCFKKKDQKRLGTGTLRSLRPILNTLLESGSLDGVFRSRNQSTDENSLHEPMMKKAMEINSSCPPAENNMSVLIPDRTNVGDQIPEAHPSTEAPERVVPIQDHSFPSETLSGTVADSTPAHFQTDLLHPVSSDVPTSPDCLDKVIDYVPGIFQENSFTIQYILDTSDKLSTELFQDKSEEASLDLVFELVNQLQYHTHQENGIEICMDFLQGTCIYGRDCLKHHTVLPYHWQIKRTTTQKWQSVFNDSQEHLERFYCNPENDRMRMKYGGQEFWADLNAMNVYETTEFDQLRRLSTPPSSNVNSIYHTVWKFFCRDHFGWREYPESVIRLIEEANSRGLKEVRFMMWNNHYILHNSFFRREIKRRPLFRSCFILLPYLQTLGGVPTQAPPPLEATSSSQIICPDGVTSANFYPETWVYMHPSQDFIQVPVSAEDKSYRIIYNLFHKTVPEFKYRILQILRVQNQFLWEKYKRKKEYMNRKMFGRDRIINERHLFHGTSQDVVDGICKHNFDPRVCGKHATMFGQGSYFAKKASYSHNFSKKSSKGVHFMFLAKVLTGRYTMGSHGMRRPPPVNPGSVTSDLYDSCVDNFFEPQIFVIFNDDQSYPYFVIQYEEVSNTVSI
Procedure: Biological Assay Example A: PARP7 TR-FRET Assay
A time-resolved fluorescence energy transfer (TR-FRET) assay was used to test binding activity of compounds to PARP7. Two microliter test compound was added in 384-well plate. Reactions were performed in a 6 uL volume by adding 4 uL mixture of PARP7 and Probe A (a biotinylated probe binding to the PARP7: N-(6-(2-(4-((2-(6-oxo-5-(trifluoromethyl)-1,6-dihydropyridazin-4-yl) isoindolin-5-yl) oxy) piperidin-1-yl) acetamido) hexyl)-5-((3aS,4S,6aR)-2-oxohexahydro-1H-thieno [3,4-d]imidazol-4-yl) pentanamide, made as reported in WO2019212937A1) in assay buffer (20 mM HEPES pH 8.0, 100 mM NaCl, 0.1% BSA, 2 mM DTT and 0.002% Tween20). The final concentration of PARP7 and Probe A were 6 nM and 2 nM, incubating with test compounds at 25° C. for 30 min. Four microliter ULight-anti 6xHis and LANCE Eu-W1024 labeled streptavidin (PerkinElmer) were added with the final concentration of ULight-anti 6xHis and LANCE Eu-W1024 at 4 nM and 0.25 nM. The reaction mixture was incubated at 25° C. for 30 min. The plate was read on a Tecan Spark plate reader (excitation wavelength at 320 nm, emission wavelength at 615 nm and 665 nm with a 90 us delay. The ratio of the 665/615 nm emission was calculated for each well to the amount of complex of PARP7 and Probe A in each well was calculated. The 0.25% DMSO vehicle was used as control and no PARP7 well was as blank well. Inhibition rate is calculated with the formula of % inhibition=100-100*(TRFcmpd-TRFblank)/(TRFcontrol−TRFblank). Inhibition IC50 is calculated with the equation of Y=Bottom+ (Top-Bottom)/(1+10^((LogIC50−X) *Hill Slope))

Compound | IC50
C[C@@H]1CN(C(=O)c2cncc(Oc3n[nH]c(=O)c(C(F)(F)F)c3N3CC4(C3)CC(F)(F)C4)c2)CCN1c1cnc(C(F)(F)F)cn1 [Compound 155] | < 100 nM
O=C(CC1CN(c2n[nH]c(=O)c3ccc(Cl)cc23)CCO1)N1CCN(c2ncc(C(F)(F)F)cn2)CC1 (single isomer, unassigned) [Compound 122] | 100 to 1000 nM
O=C(CC[C@@H]1CCCN1c1n[nH]c(=O)c2c(F)cccc12)N1CCN(c2ncc(C(F)(F)F)cn2)CC1 [Compound 97] | < 100 nM
C[C@H]1CN(c2n[nH]c(=O)c3cccc(F)c23)C[C@H](CC(=O)N2CCN(c3ncc(C(F)(F)F)cn3)CC2)O1 (stereo in doubt) [Compound 88] | 100 to 1000 nM
O=C(CC1CN(c2n[nH]c(=O)c3ncccc23)CCO1)N1CCN(c2ncc(C(F)(F)F)cn2)CC1 (single isomer, unassigned) [Compound 125] | < 100 nM
Cc1cc(Oc2n[nH]c(=O)c(C(F)(F)F)c2C)cc(C(=O)N2CCN(c3ncc(C(F)(F)F)cn3)CC2)c1 [Compound 23] | < 100 nM
O=C(CC1CN(c2cc(C(F)(F)F)c(=O)[nH]n2)c2cc(Cl)ccc2O1)N1CCN(c2ncc(C(F)(F)F)cn2)CC1 (single isomer, unassigned) [Compound 132] | < 100 nM
O=C(CC1CN(c2cc(C(F)(F)F)c(=O)[nH]n2)c2cc(F)ccc2O1)N1CCN(c2ncc(Br)cn2)CC1 (stereo not shown) [Compound 142] | < 100 nM
C[C@H]1CN(c2cc(C(F)(F)F)c(=O)[nH]n2)C[C@@H](CC(=O)N2CCN(c3ncc(C(F)(F)F)cn3)CC2)O1 (stereo in doubt) [Compound 79] | < 100 nM
C[C@@H]1CN(c2cc(C(F)(F)F)c(=O)[nH]n2)C[C@@H](CC(=O)N2CCN(c3ncc(C(F)(F)F)cn3)CC2)O1 (stereo in doubt) [Compound 112] | < 100 nM
Cc1c(Nc2cccc(C(=O)N3CCN(c4ncc(C(F)(F)F)cn4)CC3)c2)n[nH]c(=O)c1C(F)(F)F [Compound 76] | < 100 nM
Cc1c(Oc2cccc(C(=O)N3CC[C@H](Oc4ncc(C(F)(F)F)cn4)C3)c2)n[nH]c(=O)c1C(F)(F)F [Compound 28] | > 1000 nM
C[C@H]1CN(c2n[nH]c(=O)c3c(F)cccc23)C[C@@H](CC(=O)N2CCN(c3ncc(C(F)(F)F)cn3)CC2)O1 (stereo in doubt) [Compound 95] | < 100 nM
C#Cc1c(C)c(N2CCOC(CC(=O)N3CCN(c4ncc(C(F)(F)F)cn4)CC3)C2)n[nH]c1=O (single isomer, unassigned) [Compound 113] | 100 to 1000 nM
C[C@@H]1CN(C(=O)CC2CN(c3cc(C(F)(F)F)c(=O)[nH]n3)c3cc(C#N)ccc3O2)CCN1c1ncc(C(F)(F)F)cn1 (single isomer, unassigned) [Compound 152] | < 100 nM
Cc1ccc2c(=O)[nH]nc(N3CCOC(CC(=O)N4CCN(c5ncc(C(F)(F)F)cn5)CC4)C3)c2c1 (single isomer, unassigned) [Compound 102] | < 100 nM
CN(C)c1c(Oc2cccc(C(=O)N3CCN(c4ncc(C(F)(F)F)cn4)CC3)c2)n[nH]c(=O)c1C(F)(F)F [Compound 83] | < 100 nM
C#Cc1c2c(n[nH]c1=O)[C@H](OCC(=O)N1CCN(c3ncc(C(F)(F)F)cn3)CC1)CCO2 [Compound 12] | < 100 nM

Other lines, results leading:

IC50 | Compound
< 100 nM | O=C(CC1CN(c2cc(C(F)(F)F)c(=O)[nH]n2)c2ccncc2O1)N1CCN(c2ncc(C(F)(F)F)cn2)CC1 (stereo not shown) [Compound 347]
< 100 nM | O=C(c1cc(Oc2n[nH]c(=O)c(C(F)(F)F)c2N2CC3(C2)CC(F)(F)C3)ccn1)N1CCN(c2ncc(C3CC3)cn2)CC1 [Compound 308]
< 100 nM | CO[C@H]1C[C@H](Nc2c(Oc3cccc(C(=O)N4CCN(c5ncc(C(F)(F)F)cn5)CC4)c3)n[nH]c(=O)c2C(F)(F)F)C1 [Compound 190]
< 100 nM | N#Cc1ccc2c(=O)[nH]nc(N3CCOC(CC(=O)N4CCN(c5ncc(C(F)(F)F)cn5)CC4)C3)c2c1 (single isomer, unassigned) [Compound 245]
100 to 1000 nM | N#Cc1cnc(N2CCN(C(=O)CC3CN(c4cc(C(F)(F)F)c(=O)[nH]n4)c4cc(Cl)ccc4O3)CC2)nc1 (single isomer, unassigned) [Compound 294]
< 100 nM | O=C(c1cc(Oc2n[nH]c(=O)c(C(F)(F)F)c2N2CC3(C2)CC(F)(F)C3)ccn1)N1CCN(c2ncc(Cl)cn2)CC1 [Compound 307]
> 1000 nM | O=C(CC1CN(c2cc(C(F)(F)F)c(=O)[nH]n2)c2cc(F)ccc2O1)N1CCN(c2ccc(C3CC3)cn2)CC1 (single isomer, unassigned) [Compound 301]
100 to 1000 nM | CCOC1CN(c2c(Oc3cncc(C(=O)N4CCN(c5ncc(C(F)(F)F)cn5)CC4)c3)n[nH]c(=O)c2C(F)(F)F)C1 [Compound 322]
< 100 nM | O=C(c1cccc(Oc2n[nH]c(=O)c(C(F)(F)F)c2N2CC3(CCC3)C2)c1)N1CCN(c2ccc(C3CC3)cn2)CC1 [Compound 177]
< 100 nM | CCOC1CN(c2c(Oc3ccnc(C(=O)N4CCN(c5ncc(C(F)(F)F)cn5)CC4)c3)n[nH]c(=O)c2C(F)(F)F)C1 [Compound 320]
100 to 1000 nM | N#Cc1ccc(N2CCN(C(=O)CC3CN(c4cc(C(F)(F)F)c(=O)[nH]n4)c4cc(Cl)ccc4O3)CC2)nc1 (single isomer, unassigned) [Compound 225]
< 100 nM | O=C(CC1CN(c2n[nH]c(=O)c3ccc(OCC(F)F)cc23)CCO1)N1CCN(c2ncc(C(F)(F)F)cn2)CC1 (single isomer, unassigned) [Compound 210]
100 to 1000 nM | O=C(CC1CN(c2cc(C(F)(F)F)c(=O)[nH]n2)c2ccccc2O1)N1CCN(c2ncc(C(F)F)cn2)CC1 (single isomer, unassigned) [Compound 249]
< 100 nM | N#Cc1ccc2c(c1)N(c1cc(C(F)(F)F)c(=O)[nH]n1)CC(CC(=O)N1CCN(c3ncc(C(F)F)cn3)CC1)O2 (single isomer, unassigned) [Compound 219]
< 100 nM | C[C@@H]1CN(C(=O)c2cc(Oc3n[nH]c(=O)c(C(F)(F)F)c3N3CC(O)C3)ccn2)CCN1c1ncc(C(F)(F)F)cn1 [Compound 340]
> 1000 nM | O=C(CC1CN(c2n[nH]c(=O)c3cc(Cl)cc(F)c23)CCO1)N1CCN(c2ncc(C(F)(F)F)cn2)CC1 (single isomer, unassigned) [Compound 241]
< 100 nM | O=C(c1cccc(Oc2n[nH]c(=O)c(C(F)(F)F)c2N2CC3(CCC3)C2)c1)N1CCN(c2ncc(OC(F)(F)F)cn2)CC1 [Compound 276]
> 1000 nM | O=C(CO[C@H]1C[C@H](CC2CC2)Oc2c1n[nH]c(=O)c2C(F)(F)F)N1CCN(c2ncc(C(F)(F)F)cn2)CC1 (stereo in doubt) [Compound 184]
< 100 nM | CC1(C)CN(c2c(Oc3cccc(C(=O)N4CCN(c5ncc(C(F)(F)F)cn5)CC4)c3)n[nH]c(=O)c2C(F)(F)F)C1 [Compound 174]
< 100 nM | N#Cc1ccc(N2CCN(C(=O)c3cccc(Oc4n[nH]c(=O)c(C(F)(F)F)c4N4CC5(C4)CC(F)(F)C5)c3)CC2)nc1 [Compound 333]
< 100 nM | N#Cc1cnc(N2CCN(C(=O)CC3CN(c4cc(C(F)(F)F)c(=O)[nH]n4)c4ccccc4O3)CC2)nc1 (single isomer, unassigned) [Compound 250]
< 100 nM | C[C@@H]1CN(C(=O)c2cc(Oc3n[nH]c(=O)c(C(F)(F)F)c3N3CC4(C3)CC(F)(F)C4)ccn2)CCN1c1ncc(C(F)(F)F)cn1 [Compound 318]
< 100 nM | O=C(CC1CN(c2cc(C(F)(F)F)c(=O)[nH]n2)c2ccccc2O1)N1CCN(c2ccc(C(F)(F)F)cn2)CC1 (single isomer, unassigned) [Compound 246]
100 to 1000 nM | O=C(CC1CN(c2cc(C(F)(F)F)c(=O)[nH]n2)c2cc(F)ccc2O1)N1CCN(c2cnc(C(F)(F)F)cn2)CC1 (single isomer, unassigned) [Compound 292]
< 100 nM | O=C(c1cccc(Oc2n[nH]c(=O)c(C(F)(F)F)c2N2CC3(COC3)C2)c1)N1CCN(c2ncc(C(F)(F)F)cn2)CC1 [Compound 165]
